The subject of test [1] is senescent fibroblasts (passage 37). The test can be described thus: Cell proliferation and formation of cell colonies (crystal violet staining). The test is classed as cell-based, human. The note with it: CP-466722; staining after 4 days. As for the experimental part:
A human fibroblast cell line was inoculated into a Dulbecco's Modified Eagle's medium (DMEM) containing 10% fetal bovine serum (FBS), 100 units/ml of penicillin, and 100 μg/ml of streptomycin (wherein these two antibiotics were purchased from Gibro-BRL, Grand Island, N.Y.), and then, cultured in a 5% CO2 incubator at a temperature of 37° C. The fibroblast cell line (i.e., M11 strain) was a cell line derived from the foreskin of a child. When the cells were grown to about 85% confluency in a plate, the cells were subjected to subculture. The early subculture was carried out at a split ratio of 1:4, and the late subculture was carried out at a split ratio of 1:2. When the cell doubling time was 14 days, the cells were considered to be senescent fibroblasts (passages 35 to 37).
To determine the optimal concentration upon the treatment with an ATM-kinase inhibitor KU-60019 (SELLECKCHEM, S1570, salt), the senescent fibroblasts (passage 37) were inoculated into each well of a 6-well plate at a concentration of 2,000 cells/well, and then, KU-60019 was added to each well of the 6-well plate ([…]). In addition, as a negative control group, the cells were cultured under the same conditions as described above, except that a medium used herein contained a dimethyl sulfoxide (DMSO) (0.05 (v/v) %) medium. […]

Test [2] deals with senescent myoblasts (passage 11). The test can be described thus: Morphological change by microscopy. The test is classed as cell-based, human. The settings on record: CP-466722 0.1 μM, 4 weeks. As for the experimental part:
A human myoblast cell line (Human Skeletal Muscle Myoblasts, Lonza CC-2580 LOT:0000387550) was inoculated into a plate (Greiner Bio One, 658950), which was coated with Collagen Type I, by using an SkBM™-2 Basal Medium (Lonza CC-3246) containing SkGM™-2 SingleQuots™ Kit (Lonza CC-3244), and then, cultured in a 5% CO2 incubator at a temperature of 37° C. When the cells were grown to about 85% confluency in the plate, the cells were subjected to subculture. The early subculture was carried out at a split ratio of 1:4, and the late subculture was carried out at a split ratio of 1:2. When the cell doubling time was 14 days, the cells were considered to be senescent […] (passages 10 to 12).
The senescent cells were inoculated into each well of a Collagen Type I-coated 6-well plate (Greiner Bio One, 657950) at a concentration of 2,000 cells/well, and then, the senescent myoblasts ([…]) in a CO2 incubator at a temperature of 37° C. for 4 weeks. The medium was replaced by a fresh medium containing KU-60019 (0.5 μM), once every 4 days. In addition, as a negative control group, the cells were cultured under the same conditions as described above, except that a medium used herein contained DMSO (0.05 (v/v) %).
In FIG. 16, the myoblasts were cultured in the presence of the ATM-kinase inhibitor KU-60019 (0.5 μM), and then, the cell shapes were photographed using a microscope. […]

Molecules are shown by their SMILES.

As for `COc1cc2ncnc(-n3nc(-c4ccccn4)nc3N)c2cc1OC` [CP-466722, 2-(6,7-dimethoxyquinazolin-4-yl)-5-(pyridin-2-yl)-2H-1,2,4-triazol-3-amine], the “concentration producing best results in the cell proliferation and the formation of cell colonies” value in test [1] amounted to 0.1 µM. Moreover, in test [2], the “cell number and morphology vs DMSO control” value is “exist in a great number in the presence of CP-466722 and show a spindle form”.

These data come from patent publication US9770451B2, “Composition including ATM inhibitor for reducing cellular senescence and use of the composition” (Samsung Electronics Co., Ltd., priority 2014, dated 2017).
